Test results published in US20050233389A1, “Methods and compositions for peptide and protein labeling” (priority 2003, published 2005).

Columns and labels:
BirA = BirA (Escherichia coli, UniProt P06709); test: Measurement of probe ligation kinetics (HPLC); format: biochemical, E. coli; conditions: for initial rate for ligation to synthetic AP: 100 μM AP, 30° C.
Experimental: (§1) HPLC assay for probe ligation to synthetic AP. The synthetic acceptor peptide (AP) with sequence […] (SEQ ID NO: 22) was synthesized by the Tufts University Core Facility. […] Following lyophilization, the peptide was redissolved in water, and the concentration was determined from the absorbance at 280 nm using the calculated extinction coefficient of 5690 M^−1cm^−1. Reaction conditions for the probe ligation to the AP were as follows: 50 mM bicine pH 8.3, 5 mM Mg(OAc)2, 4 mM ATP, 100 μM AP, 1-2 μM BirA, and 1 mM probe (either biotin or racemic ketone 1). Reactions were incubated at 30° C. for 1-2 hours, then quenched with addition of 45 mM EDTA. Reactions were analyzed on a reverse-phase HPLC column (Microsorb-MV 300 C18). Biotin ligation reactions were analyzed using a gradient of 10-43% acetonitrile/water with 0.1% TFA over 20 minutes (flow rate 1.0 mL/min); retention times were 8.2 minutes for biotin, 16.3 minutes for the AP, and 17.7 minutes for the AP-biotin conjugate. Ketone 1 ligation reactions were analyzed using a gradient of 10-46% acetonitrile/water with 0.1 % TFA over 25 minutes (flow rate 1.0 mL/min); retention times were 16.4 minutes for ketone 1, 17.9 minutes for the AP, and 22.0 minutes for the AP-ketone 1 conjugate. For MALDI-TOF analysis, the product peak was collected, diluted with matrix solution (saturated α-cyano 4-hydroxycinnamic acid in 50% acetonitrile/water with 0.05% TFA), and spotted onto the sample target. Positive-ion MALDI-TOF data was acquired in reflector mode with external calibration.
Measurement of probe ligation kinetics. For kinetic measurements, the reaction conditions were the same as above except that 0.091 μM BirA was used, and for the ketone ligation reactions, 2 mM of racemic ketone 1 was used. A 400 μL reaction was initiated by addition of BirA and incubated at 30° C. At various timepoints, a 40 μL aliquot was removed and quenched with EDTA. Reactions were analyzed by reverse-phase HPLC as described above. The area ratios of AP and AP-probe conjugate peaks were converted to concentrations of AP-probe conjugate using a calibration curve generated by mixing known ratios of AP and AP-probe conjugate. The concentration of AP-probe conjugate was plotted versus time, and the reported initial rate was the slope of the line fit to the linear region of product synthesis.

streptavidin = streptavidin (Streptomyces avidinii, UniProt P22629); test: streptavidin binding to ketone 1; conditions: separate experiments; data not shown
Chain of streptavidin (P22629 25-183): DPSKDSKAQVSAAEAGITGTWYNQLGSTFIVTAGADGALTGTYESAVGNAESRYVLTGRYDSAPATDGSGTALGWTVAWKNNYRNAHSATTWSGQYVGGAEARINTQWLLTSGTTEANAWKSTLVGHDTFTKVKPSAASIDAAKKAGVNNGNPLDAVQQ

wild-type BirA = wild-type BirA (Escherichia coli, UniProt P06709); test: HPLC assay for probe ligation to synthetic AP; format: biochemical, E. coli; conditions: enantiomers separated by chiral HPLC; data not shown
Chain of wild-type BirA (P06709 whole entry): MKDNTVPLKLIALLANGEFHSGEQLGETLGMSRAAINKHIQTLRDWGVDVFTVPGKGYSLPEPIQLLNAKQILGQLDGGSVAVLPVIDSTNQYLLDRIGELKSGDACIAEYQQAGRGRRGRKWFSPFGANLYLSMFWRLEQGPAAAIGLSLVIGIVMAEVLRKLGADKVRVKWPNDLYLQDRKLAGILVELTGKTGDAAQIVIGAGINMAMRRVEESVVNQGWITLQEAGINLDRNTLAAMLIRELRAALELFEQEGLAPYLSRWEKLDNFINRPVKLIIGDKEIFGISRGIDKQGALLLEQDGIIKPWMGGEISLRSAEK
Experimental: as §1, with “For MALDI-TOF analysis, the product peak was collected, diluted with matrix solution (saturated α-cyano 4-hydroxycinnamic acid in 50% acetonitrile/water with 0.05% TFA), and spotted onto the sample target. Positive-ion MALDI-TOF data was acquired in reflector mode with external calibration.” left out

Chain of BirA (P06709 whole entry): as above

| Compound | conversion until which the ligation rate remained constant (BirA; 0.091 μM BirA) [%] | initial rate for ligation to synthetic AP (BirA; 1 mM biotin, 0.091 μM BirA) [µM/min] | binding of streptavidin to the probe itself (streptavidin) | acceptance of separated enantiomers by BirA (wild-type BirA) | enzyme turnovers after which the ligation rate slowed markedly (BirA; 0.091 μM BirA) [enzyme turnovers] | initial rate for ligation to synthetic AP (BirA; 2 mM racemic ketone 1, 0.091 μM BirA) [µM/min] | initial ligation rate, fold less than that for biotin ligation (BirA; ketone 1 vs biotin, identical conditions) [fold] |
| --- | --- | --- | --- | --- | --- | --- | --- |
| O=C(O)CCCC[C@@H]1SC[C@@H]2NC(=O)N[C@@H]21 [biotin, reference compound] | > 50 | 0.954 ± 0.018 | – | – | – | – | – |
| O=C(O)CCCC[C@@H]1SC[C@@H]2CC(=O)C[C@@H]21 [ketone 1] | – | – | does not bind | Only one enantiomer was accepted | ~100 | 0.258 ± 0.024 | 3.7 |
